{"source": "paper PMC8005474", "about": "(Journal of neuro-oncology, 2021)", "target": "YAP1 (Yes-associated protein, YAP) (Homo sapiens, UniProt P46937)", "sequence (P46937 whole entry)": "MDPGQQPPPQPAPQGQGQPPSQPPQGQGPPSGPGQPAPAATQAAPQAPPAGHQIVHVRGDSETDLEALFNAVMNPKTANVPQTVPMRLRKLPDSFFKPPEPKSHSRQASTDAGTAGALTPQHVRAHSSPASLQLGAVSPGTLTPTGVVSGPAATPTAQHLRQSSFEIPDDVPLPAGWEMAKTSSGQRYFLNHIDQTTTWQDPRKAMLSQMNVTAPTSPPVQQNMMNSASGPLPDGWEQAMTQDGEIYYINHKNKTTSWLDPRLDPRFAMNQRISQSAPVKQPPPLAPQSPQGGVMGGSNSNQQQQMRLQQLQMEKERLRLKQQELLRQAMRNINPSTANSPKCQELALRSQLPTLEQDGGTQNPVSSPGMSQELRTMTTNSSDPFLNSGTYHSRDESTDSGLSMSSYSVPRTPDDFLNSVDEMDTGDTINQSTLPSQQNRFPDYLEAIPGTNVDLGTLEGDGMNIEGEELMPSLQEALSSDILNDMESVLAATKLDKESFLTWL", "assay": "SPR with immobilized full-length YAP", "format": "binding", "data": [{"smiles": "COc1ccc(-c2cc(-c3ccccc3)nc3c2CC(=O)Nc2ccccc2-3)cc1OC", "note": "[NSC682769]", "values": [{"measurement": "Kd", "result": 0.738, "unit": "µM"}]}]}
